Assay results as given in paper PMC11304990, “Identification of mitochondrial ATP synthase as the cellular target of Ru-polypyridyl-β-carboline complexes by affinity-based protein profiling” (National Science Review, 2024).

What was measured:
Type in all cases: cell-based, human
[1] = tested on: triple negative breast cancer (MDA-MB-231); assay: MTT antiproliferative assay, MDA-MB-231; conditions: 72 h
Source text: (§1) Ru3–Ru9 also show a certain selectivity for cancer cells over normal cells, and Ru2, Ru3, Ru5 and Ru9 show higher selectivity index (SI) values than the other complexes.
(§2) PA-BPP was then used to confirm the molecular targets of Ru5 by modifying it with a ‘minimalist’ biorthogonal handle-containing photo-cross-linker. Through our structure–activity relationship analysis and comparison with other ruthenium complexes utilizing phen as the auxiliary ligands with similar coordination structures (using cisplatin as a control), we propose that the β-carboline ligands play an important role in antiproliferative activity. To maintain the binding characteristics of the β-carboline moiety with the targeted biomolecules, we linked the photo-cross-linker to one of the auxiliary ligands of Ru5.

prostate cancer (PC3) = assay: MTT antiproliferative assay, PC3; conditions: 72 h
Source text: as §1, §2

A549 cells = assay: Anticancer activity in wild type vs ATPase siRNA knockdown cells; conditions: compared to wild-type cells
Procedure: Figure 1. Validation of ATP5F1 as the molecular target of Ru5. (A) Proteins pulled down by streptavidin from A549 cells treated with Ru5a followed by PAL. The cells were treated with Ru5a (50 μM) for 12 h and irradiated with UV light for 20 min. (B) The top five peptides enriched by Ru5a-mediated PAL were identified with the assistance of SILAC-based chemoproteomic studies. H1F0: H1 histone family member 0; HIST4H4: histone cluster 4 H4; HIST3H2BB: histone cluster 3 H2B family member b; ATP5F1E: ATP synthase F1 subunit epsilon; HIST1H2AJ: histone cluster 1 H2A family member J. (C) Pull-down western blotting analysis of ATPase in A549 cells treated with Ru5a. (D) Cellular Ru content in cells treated with Ru5/Ru5a (20 μM, 12 h) measured by ICP-MS. (E) Impact of Ru5/Ru5a (10 μM) on the thermal stability of ATP5F1 measured by CETSA. (F) Impact on the anticancer activities of Ru5/Ru5a against wild type and ATPase knocking down (by siRNA) A549 cells. The relative cellular viability was calculated using the cells without drug treatment in each group as the control group. (G) Inhibition of Ru5/Ru5a on the enzymatic activity of ATPase. (-)-blebbistatin was used as the positive control. (H) Molecular docking of Ru5 with ATPase (PDB: 3ZIA). The red dashes indicate the hydrogen bonds formed between Ru5 and the amino acid residues (SER38 and GLN39). […]

IC50 [1]: 7.7 ± 0.2 µM
IC50 (prostate cancer (PC3)): 2.7 ± 0.4 µM
SMILES: F[P-](F)(F)(F)(F)F.F[P-](F)(F)(F)(F)F.[Ru+2].c1ccc2c(c1)[nH]c1c(-c3ncc[nH]3)nccc12.c1cnc2c(c1)ccc1cccnc12.c1cnc2c(c1)ccc1cccnc12 [Ru5]
Effect of siRNA-mediated knockdown of ATPase on anticancer effects (A549 cells): alleviates
